Assay [1] addresses T1, Proto-oncogene tyrosine-protein kinase Src (Homo sapiens, UniProt P12931). The experiment in a line: Inhibition of binding to Src SH2 domain.
Assay [2] concerns the target T1, Proto-oncogene tyrosine-protein kinase Src. Briefly: Binding affinity for Src SH2 domain.

T1 sequence (P12931 2-536 limits assumed): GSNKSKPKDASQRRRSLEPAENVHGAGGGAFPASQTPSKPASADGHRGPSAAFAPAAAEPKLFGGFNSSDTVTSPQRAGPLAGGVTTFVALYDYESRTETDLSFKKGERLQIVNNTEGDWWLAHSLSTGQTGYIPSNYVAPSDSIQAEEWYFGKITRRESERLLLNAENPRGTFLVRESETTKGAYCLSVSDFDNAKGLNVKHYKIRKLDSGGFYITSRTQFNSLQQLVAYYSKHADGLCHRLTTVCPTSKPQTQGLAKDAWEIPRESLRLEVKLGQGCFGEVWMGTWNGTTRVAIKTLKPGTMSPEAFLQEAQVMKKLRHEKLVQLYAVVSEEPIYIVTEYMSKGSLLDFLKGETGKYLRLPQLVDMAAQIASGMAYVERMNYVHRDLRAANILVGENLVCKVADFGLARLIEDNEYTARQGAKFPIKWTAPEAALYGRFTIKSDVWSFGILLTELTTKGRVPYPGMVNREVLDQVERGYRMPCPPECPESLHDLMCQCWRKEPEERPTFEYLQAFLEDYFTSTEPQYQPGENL

In general, IC50 refers to the concentration needed to halve the response being measured. A higher IC50 goes with a need for much substance. As for `CC(=O)N[C@@H](Cc1ccc(OP(=O)(O)O)cc1)C(=O)NCc1cccc(CC2CCCCC2)c1`, the IC50 in assay [1] is 769 µM.

In turn, `CC[C@H](NC(=O)[C@H](Cc1ccc(OP(=O)(O)O)cc1)NC(C)=O)c1cccc(CC2CCCCC2)c1` returned an IC50 in assay [1] of 306 µM.

By Kd is commonly meant the free concentration of one partner at which half of the binding sites on the other are occupied at equilibrium, for simple one-to-one binding. Higher therefore signals lower affinity. In assay [2], `CC[C@H](C)[C@H](NC(=O)[C@H](CCC(=O)O)NC(=O)[C@H](CCC(=O)O)NC(=O)[C@@H](N)Cc1ccc(OP(=O)(O)O)cc1)C(=O)O` gave a Kd of 0.1 µM.

The values are drawn from ChEMBL document CHEMBL1131840, “Structure-based design and synthesis of a novel class of Src SH2 inhibitors” (Bioorg Med Chem Lett, 1999).
